Reference: patent US20250304623A1, “PEPTIDES FOR INTRACELLULAR DELIVERY” (UNIVERSIDADE DE SANTIAGO DE COMPOSTELA, priority 2022, published 2025)
Starred links: 1 amine or outer side, 2 acyl side, 3 side chain; linkers in the order of their positions; H or OH if unused. Residues, ends and D or L forms follow the SMILES beside them. Groups on a side chain read outwards from the residue. *: point of attachment. Glutaryl = O=C(CCCC(=O)[*:2])[*:1]; NHNH2 = NN*

Key:
Format in all cases: cell-based
[1] = test system: A549 cells expressing EGFP; test: EGFP-targeting siRNA delivery (GFP silencing vs siMOCK), A549; settings: for percentage of GFP-silencing relative to siMOCK: A549 cells; for siRNA % fluorescence reduction vs siMOCK: A549, amphiphile 5 μM, hydrophobic tail
Procedure: (§1) To generate an EGFP expressing HeLa cell line, HeLa cells were transfected with EGFP pDNA (pEGFP-C1, Clontech) and stable transfectants were selected with 400 μg/mL of G-418 (Millipore). Green clones were selected by epifluorescence microscopy and tested for EGFP expression stability through several passages. […] All other EGFP-expressing cell lines were obtained in a similar way from parent non-EGFP-expressing cell lines.
Cells expressing EGFP were seeded in a 96 well plate the day before the experiment at a concentration of 50,000 cell/mL (100 μL/w) in DMEM+10% FBS+1% Gln-Abt. For robotic library screening, the delivery of an EGFP-targeting siRNA (EGFP: enhanced green fluorescent protein, Ambion® Silencer® GFP Positive Control siRNA (siGFP) (AM4626)) in six different cell lines expressing EGFP was performed. […] The mixture was shaken for 30 min at room temperature (rt) before the addition to the cells. The cell medium was aspirated, and cells were washed twice with PBS. Finally, 50 μL of the solution of siRNA/amphiphile complexes were added to the cells and incubated for 4 h. After transfection, the medium was replaced by 100 μL of fresh DMEM supplemented with 10% FBS. The fluorescence knockdown was quantified after 72 h in a plate reader, by comparison with cells transfected with a non-targeting siRNA control (siMOCK, Silencer™ Negative Control No. 1 siRNA (siMOCK) (AM4611)). EGFP knockdown was compared with Lipofectamine® RNAiMAX silencing efficiency (30-60% depending on cell line, defined with a numeric value in the below tables). All experiments were done in triplicate.
Tables 1-7: RLuc (pDNA) or EGFP (mRNA) expression levels were normalized to Lipofectamine reagents (value=1) and expressed as fold-times signal increase. In the case of siRNA, the siRNA treated cells fluorescence was compared with siMOCK control fluorescence, while Cas9-RNP mediated knockout was measured against the fluorescence of untreated cells. In both siRNA and Cas9-RNP, values are expressed as % fluorescence reduction. Amphiphile concentration was 5 μM in all cases. All experiments were performed in triplicate.
Tables 20-25 show the mean (triplicates) percentage of GFP-silencing, accounted by fluorescence intensity decrease relative to a non-targeting siRNA (siMOCK) control, measured after the transfection of siRNA by different amphiphiles at different concentrations in a variety of cell lines. Background values, accounted by untreated control cells, were subtracted for processing.

[2] = test system: HCT116 cells expressing EGFP; test: Cas9-RNP delivery against EGFP (gene editing, plate reader), HCT116
Procedure: as §1
(§2) Cells expressing EGFP were seeded in a 96 well plate the day before the experiment at a concentration of 50,000 cell/mL (100 μL/w) in DMEM+10% FBS+1% Gln-Abt. For robotic library screening, the delivery of Cas9-RNP against EGFP (RNP designed to knock-out the gene encoding for the enhanced green fluorescent protein (EGFP)) was performed. For RNP assembly, 9.2 μL of crRNA and 9.2 μL of tracrRNA were mixed in 211.6 μL of Nuclease-Free Duplex Buffer (IDT), incubated for 5 min at 95° C. and slowly cooled at rt (see I. Lostalé-Seijo, et al. Peptide/Cas9 nanostructures for ribonucleoprotein cell membrane transport and gene edition, Chem. Sci., 2017). Cas9 protein was dissolved in DMEM at a final concentration of 4 μM and equal volumes of the RNA complex and Cas9 were mixed and incubated for 5 min at rt. 75 μL of the corresponding amphiphile concentrations were added to 5 μL of RNP at 2 μM. The mixture was shaken for 30 min at room temperature before the addition to the cells. The cell medium was aspirated, and cells were washed twice with PBS. Cells were covered with 30 μL of DMEM and 20 μL of the RNP/amphiphile complexes were added to the cells (final peptide concentrations=2.5, 5 and 10 μM; final Cas9-RNP concentration=50 nM) and incubated for 4 h. After the incubation, the medium was replaced by 100 μL of fresh DMEM supplemented with 10% FBS. The total EGFP fluorescence was quantified after 72 h in a plate reader (FIG. 2, Table 1 (right) and Table 6). All experiments were done in triplicate. […]
(§3) Tables 26-31 show the mean (triplicates) percentage of gene editing, accounted by GFP fluorescence intensity decrease (% of reduction), measured after the transfection of Cas9-RNP by different amphiphiles at different concentrations in a variety of cell lines. Background values, accounted by untreated control cells, were subtracted for processing.

[3] = test system: HepG2 cells expressing EGFP; test: Cas9-RNP delivery against EGFP (gene editing, plate reader), HepG2
Procedure: as §1, §2, §3

[4] = MTS cell viability of transfected cells, A549; settings: human; A549 cells transfected with Cas9-RNP complexes; myristoleyl, palmitoleyl or petroselinyl aldehydes
Procedure: For Cas9-RNP delivery, the efficiency on GFP silencing was around 60-70% when complexing the protein with an amphiphile comprising 7.3(Leu-His) and myristoleyl, palmitoleyl or petroselinyl aldehydes. Cells transfected with the above-indicated complexes present a cell viability higher than 80%. Viability assays were performed employing the CellTiter 96© Aqueous Non-Radioactive Cell Proliferation Assay (MTS) and following the manufacturer's instructions. Briefly, 20 μL of the combined MTS/PMS solution were added into each well of the 96-well assay plate containing cells in culture medium (100 μL). The plate was incubated 4 hours at 37° C. and 5% CO2 in a humidified atmosphere. Then, absorbance (490 nm) was recorded in an INFINITE M1000 PRO (TECAN).

Compound	percentage of GFP-silencing relative to siMOCK ([1]; Myristoleyl, 5 μM) [%]	percentage of GFP-silencing relative to siMOCK ([1]; Myristoleyl, 10 μM) [%]	percentage of GFP-silencing relative to siMOCK ([1]; Myristoleyl, 15 μM) [%]	percentage of GFP-silencing relative to siMOCK ([1]; Oleyl, 5 μM) [%]	percentage of GFP-silencing relative to siMOCK ([1]; Oleyl, 10 μM) [%]	percentage of GFP-silencing relative to siMOCK ([1]; Oleyl, 15 μM) [%]	percentage of GFP-silencing relative to siMOCK ([1]; Palmitoleyl, 15 μM) [%]	percentage of GFP-silencing relative to siMOCK ([1]; Petroselinyl, 10 μM) [%]	percentage of GFP-silencing relative to siMOCK ([1]; Petroselinyl, 15 μM) [%]	percentage of gene editing, GFP fluorescence intensity decrease (% of reduction) ([2]; Dodecanal, 15 μM) [%]	percentage of gene editing, GFP fluorescence intensity decrease (% of reduction) ([2]; Myristoleyl, 15 μM) [%]	percentage of gene editing, GFP fluorescence intensity decrease (% of reduction) ([2]; Oleyl, 5 μM) [%]	percentage of gene editing, GFP fluorescence intensity decrease (% of reduction) ([2]; Oleyl, 10 μM) [%]	percentage of gene editing, GFP fluorescence intensity decrease (% of reduction) ([2]; Palmitoleyl, 5 μM) [%]	percentage of gene editing, GFP fluorescence intensity decrease (% of reduction) ([2]; Palmitoleyl, 10 μM) [%]	percentage of gene editing, GFP fluorescence intensity decrease (% of reduction) ([3]; Dodecanal, 10 μM) [%]	percentage of gene editing, GFP fluorescence intensity decrease (% of reduction) ([3]; Myristoleyl, 5 μM) [%]	percentage of gene editing, GFP fluorescence intensity decrease (% of reduction) ([3]; Myristoleyl, 10 μM) [%]	percentage of gene editing, GFP fluorescence intensity decrease (% of reduction) ([3]; Palmitoleyl, 5 μM) [%]	percentage of gene editing, GFP fluorescence intensity decrease (% of reduction) ([3]; Palmitoleyl, 10 μM) [%]	also measured
CC(=O)N[C@@H](CCCNC(=N)N)C(=O)N[C@@H](CCCCNC(=O)CCCC(=O)NN)C(=O)N[C@@H](Cc1c[nH]cn1)C(=O)N[C@@H](CCCNC(=N)N)C(=O)N[C@@H](CCCCNC(=O)CCCC(=O)NN)C(=O)N[C@@H](CCCCNC(=O)CCCC(=O)NN)C(=O)N[C@@H](Cc1c[nH]cn1)C(N)=O [7.3(L-H), Ac-RK*HRK*K*H-NH2] (Ac-RK([Glutaryl-NHNH2])HRK([Glutaryl-NHNH2])K([Glutaryl-NHNH2])H-NH2)	18	22	31	2	14	21	40	20	52	3	26	−5	5	28	22	−28	−16	−25	−23	−12	percentage of gene editing, GFP fluorescence intensity decrease (% of reduction) ([3]; Dodecanal, 15 μM): −28%; percentage of gene editing, GFP fluorescence intensity decrease (% of reduction) ([3]; Myristoleyl, 15 μM): −19%; percentage of gene editing, GFP fluorescence intensity decrease (% of reduction) ([3]; Oleyl, 5 μM): −17%; percentage of gene editing, GFP fluorescence intensity decrease (% of reduction) ([3]; Oleyl, 10 μM): −13%; percentage of gene editing, GFP fluorescence intensity decrease (% of reduction) ([3]; Oleyl, 15 μM): −12%; percentage of gene editing, GFP fluorescence intensity decrease (% of reduction) ([3]; Palmitoleyl, 15 μM): −25%; percentage of gene editing, GFP fluorescence intensity decrease (% of reduction) ([3]; Petroselinyl, 10 μM): −20%; viability [4]: > 80%
Ac-RRLK*RLK*RRLK*RL-NH2 [Peptide 13.3]	57	25	28		14	4	29	53	59	20	10	−1		−18		−11	−22	3	−30	−19	siRNA % fluorescence reduction vs siMOCK ([1]; dodecanal hydrophobic tail): 58%; siRNA % fluorescence reduction vs siMOCK ([1]; myristoleyl hydrophobic tail): 57%; siRNA % fluorescence reduction vs siMOCK ([1]; palmitoleyl hydrophobic tail): 60%; percentage of GFP-silencing relative to siMOCK ([1]; Dodecanal, 5 μM): 59%; percentage of GFP-silencing relative to siMOCK ([1]; Dodecanal, 10 μM): 54%; percentage of GFP-silencing relative to siMOCK ([1]; Dodecanal, 15 μM): 46%; percentage of GFP-silencing relative to siMOCK ([1]; Palmitoleyl, 5 μM): 60%; percentage of GFP-silencing relative to siMOCK ([1]; Palmitoleyl, 10 μM): 37%; percentage of GFP-silencing relative to siMOCK ([1]; Petroselinyl, 5 μM): 31%; percentage of gene editing, GFP fluorescence intensity decrease (% of reduction) ([2]; Dodecanal, 5 μM): 25%; percentage of gene editing, GFP fluorescence intensity decrease (% of reduction) ([2]; Dodecanal, 10 μM): 10%; percentage of gene editing, GFP fluorescence intensity decrease (% of reduction) ([2]; Palmitoleyl, 15 μM): 18%; percentage of gene editing, GFP fluorescence intensity decrease (% of reduction) ([3]; Dodecanal, 5 μM): −27%; percentage of gene editing, GFP fluorescence intensity decrease (% of reduction) ([3]; Petroselinyl, 5 μM): −20%
Ac-RK*LRK*K*L-NH2 (Ac-RK(NHNH2)LRK(NHNH2)K(NHNH2)L-NH2; not fully specified; printed as Ac-RK*LRK*K*L-NH2; also: K*2,K*5,K*6: native or modified lysine (ε-amide to a linker)) [Peptide 7.3]				3		7		13		−11	4	−7	4	−12	17	−24	−19	−20	−14	−14	percentage of GFP-silencing relative to siMOCK ([1]; Dodecanal, 5 μM): 7%; percentage of GFP-silencing relative to siMOCK ([1]; Dodecanal, 10 μM): 22%; percentage of GFP-silencing relative to siMOCK ([1]; Dodecanal, 15 μM): 19%; percentage of gene editing, GFP fluorescence intensity decrease (% of reduction) ([2]; Palmitoleyl, 15 μM): 35%; percentage of gene editing, GFP fluorescence intensity decrease (% of reduction) ([2]; Petroselinyl, 5 μM): 39%; percentage of gene editing, GFP fluorescence intensity decrease (% of reduction) ([2]; Petroselinyl, 10 μM): 34%; percentage of gene editing, GFP fluorescence intensity decrease (% of reduction) ([3]; Dodecanal, 5 μM): −21%; percentage of gene editing, GFP fluorescence intensity decrease (% of reduction) ([3]; Dodecanal, 15 μM): −29%; percentage of gene editing, GFP fluorescence intensity decrease (% of reduction) ([3]; Myristoleyl, 15 μM): −14%; percentage of gene editing, GFP fluorescence intensity decrease (% of reduction) ([3]; Oleyl, 5 μM): −7%; percentage of gene editing, GFP fluorescence intensity decrease (% of reduction) ([3]; Oleyl, 10 μM): −3%; percentage of gene editing, GFP fluorescence intensity decrease (% of reduction) ([3]; Oleyl, 15 μM): −1%; percentage of gene editing, GFP fluorescence intensity decrease (% of reduction) ([3]; Palmitoleyl, 15 μM): −4%; percentage of gene editing, GFP fluorescence intensity decrease (% of reduction) ([3]; Petroselinyl, 10 μM): −1%
